{"source": "patent US7276337B2", "about": "“Compositions and methods for visual ribonuclease detection assays” (Integrated DNA Technologies, Inc., priority 2000, dated 2007)", "molecular_target": "T1, Ribonuclease T1 (Aspergillus oryzae, UniProt P00651)", "T1 sequence (P00651 27-130)": "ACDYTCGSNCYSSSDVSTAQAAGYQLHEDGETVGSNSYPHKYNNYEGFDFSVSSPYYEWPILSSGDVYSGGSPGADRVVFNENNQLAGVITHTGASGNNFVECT", "experiment": "Visual detection ribonuclease assay, cleavage of Substrate ODN by RNase T1", "assay_type": "biochemical", "set-up": "key to Sensitivity of Substrate ODN to Ribonuclease T1, relative signal intensity: +++ = maximum intensity; ++ = moderate intensity; + = faint but above background; − = negative (identical to background)", "settings": "Substrate 500 nM; for Sensitivity of Substrate ODN to Ribonuclease T1, relative signal intensity: visual inspection, UV excitation, 37° C. 60 minutes", "outline": "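Substrate ODNs at 500 nM in 1× Assay Buffer; RNase T1 serially diluted to final 0.001, 0.0001 and 0.00001 units/ml. After incubation (60 min at 37 °C, or 10 min at room temperature), fluorescence under UV excitation was inspected by eye and scored +++, ++, + or − by relative intensity.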"}
{"substance": "5′ Fluorescein-AauggcA-QSY-7 3′ (NAAUGGCAN; 5' fluorescein and 3' QSY-7 labels, nucleotide chemistry not given here) [SEQ ID NO:30]", "values": [{"measurement": "Sensitivity of Substrate ODN to Ribonuclease T1, relative signal intensity", "setting": "RNase T1 10^−3 units/ml", "value": "+++"}, {"measurement": "Sensitivity of Substrate ODN to Ribonuclease T1, relative signal intensity", "setting": "RNase T1 10^−4 units/ml", "value": "+++"}, {"measurement": "Sensitivity of Substrate ODN to Ribonuclease T1, relative signal intensity", "setting": "RNase T1 10^−5 units/ml", "value": "+++"}, {"measurement": "Detection of RNase T1 activity by visual examination", "setting": "final dilution factors of stock 10^−2 to 10^−7, room temperature 10 minutes", "value": "clearly detectable"}]}
